The results in this text go back to patent publication US20240190876A1, “Tricyclic Urea Compounds As JAK2 V617F Inhibitors” (Incyte Corporation, priority 2022, published 2024).

Assay [1] concerns Phospho-STAT5 (Tyr694) in SET-2 cells. The experiment in a line: STAT5 (Tyr694) Phosphorylation Cell Based Assay. The note with it: Homo sapiens, pSTAT5 (Tyr694) HTRF, 2 hours, RPMI with 10% FBS, read-out: SET2 IC50. Here is the method:
SET-2 cells was purchased from DSMZ (Germany). RPMI1640 medium, Fetal Bovine Serum and 384-white sold flat-bottom small volume plate were purchased from Thermo Fisher Scientific (Waltham, MA). Phospho-STAT5 (Tyr694) HTRF kit was purchased from Perkin Elmer (Waltham, MA).
SET-2 cells were cultured in RPMI media with 20% FBS at 37° C. in humidified incubator supplied with 5% CO2. On the day of assay, the cells were centrifuged to remove the culture media and resuspended with prewarmed RPMI with 10% FBS.
Testing compounds were prepared by serial dilution in DMSO and 50 nL/well test compounds were transferred to the 384 white low volume cell culture plate (Greiner Bio-one) by ECHO liquid handler (Labcyte). The cells were then dispensed with Multidrop (Thermo Fisher, Waltham, MA) at 10 μL/well (7×10^6 cells/mL) with 0.5% DMSO in the final assay. After the treated cells were incubated for 2 hours at 37° C./5% CO2 incubator, 4 μL/well supplemented lysis buffer (100X blocking buffer diluted 25 fold in 4X lysis buffer, Perkin Elmer) were added and incubated at room temperature for 90 min on orbital shaker at 600 rpm. Phospho-STAT5 Cryptate antibody and Phospho-STAT5 d2 antibody (1:1 vol/vol) were premixed and diluted 20 fold with in the detection buffer (Perkin Elmer). 4 μL of the premixed antibody solution were added to each well followed with 24 hours incubation at room temperature on orbital shaker at 600 rpm. The product activity was determined by measuring the fluorescence at 620 nm and 665 nm on Pherastar microplate reader (BMG Labtech). A ratio is calculated (665/620) for each well. Wells with DMSO only served as the positive controls and wells containing high concentration of control compound were used as negative controls. IC50 determination was performed by fitting the curve of percent control activity versus the log of the compound concentration using the GraphPad Prism 7.0 software.

Assay [2] deals with T1, catalytic domain (JH1) of human JAK2 (Homo sapiens, UniProt O60674).
T1 construct: catalytic domain (JH1, amino acids 826-1132) of human JAK2; FLAG (N); purchased Carna Biosciences 08-445-20N; host or cells: baculovirus expression system
T1 sequence (O60674 826-1132): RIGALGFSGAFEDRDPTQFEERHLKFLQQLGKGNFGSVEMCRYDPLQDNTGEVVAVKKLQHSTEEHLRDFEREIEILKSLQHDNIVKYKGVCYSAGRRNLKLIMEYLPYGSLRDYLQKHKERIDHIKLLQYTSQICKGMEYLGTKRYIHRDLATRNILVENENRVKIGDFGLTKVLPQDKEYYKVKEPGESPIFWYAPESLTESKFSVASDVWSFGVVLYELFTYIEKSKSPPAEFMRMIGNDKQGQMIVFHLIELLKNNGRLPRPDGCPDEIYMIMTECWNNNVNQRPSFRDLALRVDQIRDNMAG
The experiment in a line: JAK2 LanthaScreen JH1 Binding Assay. Particulars: 50 nM JAK2-JH1 tracer, 2 hours at 25° C., read-out: JH1 Bind IC50. How it is done: JAK2 JH1 binding assay utilizes catalytic domain (JH1, amino acids 826-1132) of human JAK2 expressed as N-terminal FLAG-tagged, biotinylated protein in a baculovirus expression system (Carna Biosciences, Product #08-445-20N). The assay was conducted in black 384-well polystyrene plates in a final reaction volume of 20 μL. JAK2 JH1 (1.5 nM) was incubated with compounds (100 nL serially diluted in DMSO) in the presence of 50 nM fluorescent JAK2-JH1 tracer and 0.5 nM Streptavidin-Tb cryptate (Cisbio Part #610SATLB) in assay buffer (50 mM Tris, pH=7.5, 10 mM MgCl2, 0.01% Brij-35, 0.1% BSA, 1 mM EGTA, 5% Glycerol and 5 mM DTT). Non-specific binding was accessed in the presence of 2 mM ATP. After incubation for 2 hours at 25° C., LanthaScreen signals were read on a PHERAstar FS plate reader (BMG LABTECH). Data was analyzed with IDBS XLfit and GraphPad Prism 5.0 software using a four parameter dose response curve to determine IC50 for each compound.

The test system of assay [3] is pSTAT5 signaling in SET-2 cells in whole blood. The experiment in a line: pSTAT5 SET-2 Whole Blood MSD Assay. In kind it is cell-based. The note with it: Homo sapiens, SET-2 cells with whole blood, 2 hour incubation, read-out: SET2 WB IC50. Here is the method:
SET-2 cells shipped from ABS, RPMI1640 medium, Fetal Bovine Serum from Gibco, Phospho-STAT5a,b Whole Cell Lysate Kit from Mesoscale, Retronectin (Recombinant Human Fibronectin Fragment) from TaKaRa, 96 well cell culture plate flat bottom from Corning, lysis buffer from Cell Signaling Technology, and sterile PBS from Gibco. Whole Blood from by BioIVT.
SET-2 cells were cultured in RPMI media with 20% FBS at 37° C. humidified incubator supplied with 5% CO2. On the day of the assay, 40 μL per well of diluted retronectin working solution was added to sterile 96-well clear flat bottom tissue culture plates (1:200 dilution of retronectin in sterile PBS) and incubated at 37C for 1 hour. After 1 hour, the retronectin working solution was aspirated and SET-2 cells were seeded at 100,000/well in RPMI+20% FBS. Cells were incubated overnight at 37° C. and 5% CO2.
The next day, the medium was removed and 40 μL of diluted compounds in serum-free RPMI and whole blood was added to the cells for a 2 hour incubation at 37° C. and 5% CO2. The compound starting concentration is 20 μM and 2.5 fold serial diluted down to 0.21 nM. The whole blood and compound mixture was then aspirated off using the BlueCat plate washer and washed 1× with PBS. Cells were lysed by adding 40 μL of 3X complete lysis buffer and shaken at room temperature for 45-60 minutes (complete lysis buffer consists of Cell Signaling Technology lysis buffer diluted to 3X and supplemented with Mesoscale's protease inhibitor, phosphatase I inhibitor, and phosphatase II inhibitor). The pSTAT5 MSD plates were blocked by adding 150 μL of Blocker A solution per well to the MSD plates and incubated at room temperature with shaking at 400 rpm for one hour or longer. After blocking, plates were washed 3X with 300 μL/well of IX Tris Wash Buffer. After lysis, added 25 μL per well of lysed sample was added to MSD plate and incubated with shaking at 4° C. wrapped in foil overnight. The next day, plates were washed again and 25 μL/well of diluted 1X Detection Antibody Solution, wrapped in foil, and incubated at room temperature with shaking at 400 rpm for 1 hour.
Plates were then washed again and lastly, 150 μL/well of 1X Read Buffer T was added to all wells. Plates were analyzed on MSD Discovery within 5 minutes. […] Data analysis was performed in GraphPad Prism using a 4-parameter fit and data was reported as Average ±SD.

On to `COc1ccc(-c2c(-c3cn(C)nc3OC)[nH]c3ncc4c(c23)n([C@H]2CC[C@@](C)(NC(=O)C3CC3)CC2)c(=O)n4C)cc1` [Example 1, N-((1s,4s)-4-(7-(3-Methoxy-1-methyl-1H-pyrazol-4-yl)-8-(4-methoxyphenyl)-3-methyl-2-oxo-3,6-dihydroimidazo[4,5-d]pyrrolo[2,3-b]pyridin-1(2H)-yl)-1-methylcyclohexyl)cyclopropanecarboxamide], for which the concentration for half-maximal inhibition (IC50) in assay [1] was not above 300 nM; in assay [2], more than 1000 nM; in assay [3] it was 2500 to 5000 nM.

Take `[2H]C([2H])([2H])n1ncc2cc(-c3c(-c4cn(C)nc4OC)[nH]c4ncc5c(c34)n([C@H]3CC[C@@](C)(NC(=O)C4CC4)CC3)c(=O)n5C)ccc21` [Example 2, N-((1s,4s)-4-(7-(3-Methoxy-1-methyl-1H-pyrazol-4-yl)-3-methyl-8-(1-(methyl-d3)-1H-indazol-5-yl)-2-oxo-3,6-dihydroimidazo[4,5-d]pyrrolo[2,3-b]pyridin-1(2H)-yl)-1-methylcyclohexyl)cyclopropanecarboxamide]: the concentration for half-maximal inhibition (IC50) is not above 300 nM in assay [1], more than 1000 nM in assay [2] and not above 2500 nM in assay [3].

Regarding `[2H]C([2H])([2H])n1cc(-c2[nH]c3ncc4c(c3c2-c2ccc(OC)cc2)n([C@H]2CC[C@@](C)(NC(=O)C3CC3)CC2)c(=O)n4C)c(F)n1` [Example 3, N-((1s,4s)-4-(7-(3-fluoro-1-(methyl-d3)-1H-pyrazol-4-yl)-8-(4-methoxyphenyl)-3-methyl-2-oxo-3,6-dihydroimidazo[4,5-d]pyrrolo[2,3-b]pyridin-1(2H)-yl)-1-methylcyclohexyl)cyclopropanecarboxamide], the IC50 in assay [1] was not above 300 nM; in assay [2], more than 1000 nM; in assay [3] it was 2500 to 5000 nM.

Regarding `[2H]C([2H])([2H])n1cc(-c2[nH]c3ncc4c(c3c2-c2ccc3c(cnn3C([2H])([2H])[2H])c2)n([C@H]2CC[C@@](C)(NC(=O)C3CC3)CC2)c(=O)n4C)c(F)n1` [Example 4, N-((1s,4s)-4-(7-(3-fluoro-1-(methyl-d3)-1H-pyrazol-4-yl)-3-methyl-8-(1-(methyl-d3)-1H-indazol-5-yl)-2-oxo-3,6-dihydroimidazo[4,5-d]pyrrolo[2,3-b]pyridin-1(2H)-yl)-1-methylcyclohexyl)cyclopropanecarboxamide], the IC50 in assay [1] was not above 300 nM; in assay [2] it was more than 1000 nM; in assay [3], not above 2500 nM.

`[2H]C([2H])([2H])n1ncc2cc(-c3c(-c4cn(CC)nc4F)[nH]c4ncc5c(c34)n([C@H]3CC[C@@](C)(NC(=O)C4CC4)CC3)c(=O)n5C)ccc21` [Example 5, N-((1s,4s)-4-(7-(1-Ethyl-3-fluoro-1H-pyrazol-4-yl)-3-methyl-8-(1-(methyl-d3)-1H-indazol-5-yl)-2-oxo-3,6-dihydroimidazo[4,5-d]pyrrolo[2,3-b]pyridin-1(2H)-yl)-1-methylcyclohexyl)cyclopropanecarboxamide]: the 50% inhibitory concentration (IC50) in assay [1] was not above 300 nM; in assay [2], more than 1000 nM; in assay [3], not above 2500 nM.

Take `[2H]C([2H])([2H])n1cc(-c2[nH]c3ncc4c(c3c2-c2ccc(OC)cc2)n([C@H]2CC[C@@](C)(NC(=O)[C@H]3C[C@H]3F)CC2)c(=O)n4C([2H])([2H])[2H])c(F)n1` [Example 6, (1R,2R)-2-Fluoro-N-((1s,4S)-4-(7-(3-fluoro-1-(methyl-d3)-1H-pyrazol-4-yl)-8-(4-methoxyphenyl)-3-(methyl-d3)-2-oxo-3,6-dihydroimidazo[4,5-d]pyrrolo[2,3-b]pyridin-1(2H)-yl)-1-methylcyclohexyl)cyclopropane-1-carboxamide]: the IC50 is not above 300 nM in assay [1], more than 1000 nM in assay [2] and not above 2500 nM in assay [3].
